≈ marks a conversion by molar mass, not a printed value. Where two headings read alike, the source gives them in different places.
Experiments:
[1] = 28-day GLP inhalation toxicology study
[2] = system: colony biofilms of PAM1032; format: cell-based, P. aeruginosa; conditions: 10 minutes of exposure
Protocol: The viable cell numbers were enumerated by plating serially diluted samples (in duplicates) on MHB plates by the drop (10 ul) plating method.

[3] = physchem
Text: The buffers used were HCL (pH 1,2), acetate (pH 4,5), phosphate (pH 6,7,8) and borate (9,10).

[4] = 4 day non-GLP ascending dose inhalation toxicology study; conditions: 24 hours after the last dose
[5] = in vivo; cited from earlier work
[6] = in vivo
Protocol: In the second test, the tolerability and taste of a small aerosol sample from a 0.5 ml aliquot of the test formulation was determined in a single healthy human volunteer, following nebulization in a PARI eFlow nebulizer (Table 12).
The tolerability and taste of the drug during a very brief administration period and for a period of 10 minutes post administration were monitored. Tolerability parameters were of the following types: (i) cough, cough sensation, or sneezing (ii) irritation, burning or tightness of throat, (ii) irritation or runniness in nasal passages or eyes, (iii) irritation, burning or tightness of the lungs or shortness of breadth, and (iv) dizziness, headache, nausea or other systemic effects.

[7] = system: PAM1032; test: In vitro pharmacodynamic (hollow fiber) model of infection; format: cell-based, Pseudomonas aeruginosa; conditions: for reduction in bacterial counts: half-life 10 minutes
Protocol: (§1) The in vitro pharmacodynamic model consists of a central (analogous “serum” compartment) and peripheral (“extravascular”) compartment. The peripheral compartments consist of artificial capillary units (Unisyn, Hopkinton, Mass.) arranged in series with the central compartment. Each capillary unit has a bundle of small semi-permeable fibers with a molecular size retention of ca. 10,000 MW to allow passage of nutrients but not bacteria. The entire system is set up in a dry heat incubator adjusted to 37° C.
(§2) Both the central and peripheral compartments were filled with Mueller-Hinton broth. Each peripheral compartment (capillary unit and tubing) contained ca. 23 ml of growth medium.
(§3) Bacteria were introduced into the peripheral chamber of the model and allowed to grow for 2 hours prior to the first “dose” of drug. Drug doses were administered into the central compartment and pumped to peripheral chambers by a peristaltic pump. Concentrations in the model declined according to first order elimination (half-life) by dilution of the central compartment with drug free medium introduced by an additional peristaltic pump adjusted to the desired clearance.
(§4) Samples (0.3 ml) were collected from peripheral compartments at various intervals for determination of drug and bacterial concentrations. Samples were collected from the peripheral compartments and assayed for drug concentrations by HPLC.
(§5) Of the resulting dilution, 2.3 ml was injected into each peripheral chamber of the hollow-fiber bioreactors (Unisyn, Hopkinton, Mass.).

[8] = system: PAM1020; test: Time-kill, exponentially grown cells (Experiment 1); format: cell-based, P. aeruginosa; conditions: 64 ug/ml ([…] MIC), 10 minutes
Protocol: At appropriate times, 1 ml of each exposure culture was centrifuged for 2 minutes, the pellet was washed twice with 1 ml of drug-free MHB, and re-suspended in 1 ml of MHB. The viable cell numbers were enumerated by plating serially diluted samples (in duplicates) on MHB plates by the drop (10 ul) plating method. The limit of detection was 100 CFU/ml. Killing is reported as the log reduction calculated relative to cell count at the time of initiation of antibiotic exposure. Relative antibiotic concentrations (relative to MIC of the corresponding strains) are used.

[9] = Rat pharmacokinetic model (IV vs microspray aerosol, intratracheal); format: in vivo, rats; conditions: 10 mg/kg; for AUC: epithelial lining fluid (ELF)
Protocol: […] Blood samples are taken at various times over 3 hours to determine the plasma pharmacokinetic parameters. […] The plasma and tissue concentrations are determined by an HPLC method and the data are then fit using WinNonlin.

[10] = Tolerability of aerosol levofloxacin in a healthy human subject
[11] = system: PAM1582; test: Levofloxacin MIC of hollow fiber test strain; format: cell-based; conditions: Pseudomonas aeruginosa, read-out: Levofloxacin MIC
Text: Pseudomonas aeruginosa PAM1032 and PAM1582. […]

[12] = system: PAM1032; format: cell-based, P. aeruginosa; conditions: PAM1032, genotype nalB
Text: (§6) . Those were chosen based on what is known about conditions and growth of PA in a cystic fibrosis (CF) lung. Four isogenic strains of P. aeruginosa were used for these experiments (Table 2).

[13] = 4 day GLP inhalation toxicology study
[14] = system: PAM1020; test: microbe, parasite or virus in culture; format: cell-based, P. aeruginosa; conditions: Pseudomonas aeruginosa, read-out: Levofloxacin MIC
Text: as §6

[15] = system: PAM1582; format: cell-based, Pseudomonas aeruginosa; conditions: for reduction in bacterial counts: half-life 10 minutes
Protocol: as §1, §2, §3, §4, §5

[16] = system: P. aeruginosa strain PAM 1723; test: Mouse lung infection efficacy model; conditions: Pseudomonas aeruginosa, PAM1723, in Mus musculus
Protocol: The inoculum is adjusted to ca. 5×10^6 CFU/ml by correlation of absorbance at 600 nm with predetermined plate counts. […] On day 5, mice are infected by an intratracheal instillation of 0.05 ml of inoculum while under isoflurane anesthesia (5% isoflurane in oxygen running at 4 L/min). […] Mice are sacrificed 1 and 4 hours after treatment, their lungs removed, homogenized and plated to determine colony counts.

[17] = system: PAM1032; format: cell-based, P. aeruginosa
Protocol: Overnight cultures were grown aerobically overnight in Mueller-Hinton Broth and next diluted 1:10000 in MEM which filled growth flasks to the very top. Cultures were grown without shaking to OD˜0.3 at 37° C. […] Other than decreased aeration, antibiotic concentration, time of exposure, and determination of viable cell counts were the same as in Experiments 1 and 2.

[18] = physchem; remark: listed apart in the source
Protocol: This solution was titrated with 1 N HCl. Measured aliquots of HCl were added and the pH recorded after each addition. Titration was continued till a pH of 1.
Vep volume of titrant added till the equivalence point; [OH^−]=hydroxide ion concentration=Kw/[…]; [H^+]=hydronium ion concentration=10^−pH.

With `C[C@H]1COc2c(N3CCN(C)CC3)c(F)cc3c(=O)c(C(=O)O)cn1c23` [Levofloxacin, levofloxacin] the survival ([1]; 28 day treatment period) was “all animals survived”, the necropsy ([1]; after the last dose) was “dose related squamous cell hyperplasia of the larynx” and the “maximum observed bactericidal activity against biofilms” value [2] was 99%. The pKa [3] was 5.91, the necropsy [4] was “did not show any findings” and the “penetration into lung tissues” value [5] was “penetrates well into lung tissues”. For the same molecule, the “Aerosol Tolerability and Taste” value [6] was “chemical taste, somewhat bitter,”, the “time to maximum bactericidal effect” value ([7]; Cmax 600 ug/ml) was 30 min and the “reduction in bacterial counts” value ([7]; Cmax 600 ug/ml) was 5 log. For the same molecule, the “time to maximum bactericidal effect” value ([7]; Cmax 1000 ug/ml) was no more than 10 min, the “reduction in bacterial counts” value ([7]; Cmax 1000 ug/ml) was 5 log and the bacterial reduction ([7]; Cmax of both 600 and 1000 ug/ml, strain with MIC of 1 ug/ml) was no more than 99.9999%. For the same molecule, the “maximum killing, decrease in viable cell counts” value [8] was 5.5 log, the “F, % from Lung vs. IV” value ([9]; IT) was 86% and the AUC ([9]; rat, inhaled or intranasal, IT) was 12100 ng·h/mL. It also gave an AUC ([9]; rat, iv) of 10500 ng·h/mL, a half-life ([9]; rat, in vivo, inhaled or intranasal, IT, read-out: Serum t1/2 (converted)) of 24 min and an AUC(0-inf) ([9]; rat, serum, inhaled or intranasal, IT) of 3280 ng·h/mL. For the same molecule, the “tolerability of hypotonic solutions for inhalation” value ([10]; concentrations greater than 10 mg/ml) was “poorly tolerated”, the overall tolerability ([10]; first test) was “well tolerated” and the acute tolerability ([10]; second test: 4 ml of 18.75 mg/mL, Aerogen Small, estimated RDD 35 mg) was “very comparable to the first test”. The “adverse effects in the throat, airway or lungs” value ([10]; third test: 4 mL of 18.75 mg/mL, PARI Large, estimated RDD ~55 mg) was “no adverse effects in the throat, airway or lungs”, the MIC [11] was 32 µg/mL and the “Levofloxacin MIC” value [12] was 1 µg/mL. The “Levofloxacin MIC” value ([12]; listed as levofloxacin) was 1.0 µg/mL, the survival ([13]; 4 day treatment period) was “all animals survived” and the necropsy ([13]; after the last dose) was “did not show any findings”. For the same molecule, the MIC [14] was 0.25 µg/mL (≈ 0.692 µM), the bacterial reduction [15] was “up to 99.99%” and the “reduction in bacterial counts” value ([15]; Cmax 600 ug/ml) was 3 log. For the same molecule, the “reduction in bacterial counts” value ([15]; Cmax 1000 ug/ml) was 4 log, the bacterial reduction ([15]; listed as levofloxacin) was “up to 99.999%” and the log reduction at 25 mg/kg ([16]; 1 h, read-out: DeltaLOG CPU 1 hr, route IT, dose 25 mg/kg, 1 hr post-drug administration) was 2.48. The log reduction at 25 mg/kg ([16]; 4 h, read-out: DeltaLOG CPU 4 hr, route IT, dose 25 mg/kg, 4 hr post-drug administration) was 1.45, the log reduction at 25 mg/kg ([16]; ip, 1 h, read-out: DeltaLOG CPU 1 hr, route IP, dose 25 mg/kg, 1 hr post-drug administration) was 1.4 and the “stronger killing at longer exposure intervals (difference)” value [17] was “less than 1 log”. For the same molecule, the “acidic pKa” value [18] was roughly 1.6, the pKb [18] was 7.7 and the pKa ([18]; acidic pKa) was less than 2. For the same molecule, the pKa ([18]; pKa) was 6.3 and the pKa ([18]; pKa of the basic site as stated in text) was roughly 6.8.

From patent US10987357B2, “Aerosolized fluoroquinolones and uses thereof” (Horizon Orphan, LLC, priority 2005, dated 2021)
